The species named for data set [1] is Homo sapiens. As to the kind of experiment: Selectivity ratio of Ki for human dopamine D2S receptor to Ki for human dopamine D3 receptor.
The target of data set [2] is T1, Alpha-1A adrenergic receptor (Homo sapiens, UniProt P35348).
T1 sequence (P35348 whole entry): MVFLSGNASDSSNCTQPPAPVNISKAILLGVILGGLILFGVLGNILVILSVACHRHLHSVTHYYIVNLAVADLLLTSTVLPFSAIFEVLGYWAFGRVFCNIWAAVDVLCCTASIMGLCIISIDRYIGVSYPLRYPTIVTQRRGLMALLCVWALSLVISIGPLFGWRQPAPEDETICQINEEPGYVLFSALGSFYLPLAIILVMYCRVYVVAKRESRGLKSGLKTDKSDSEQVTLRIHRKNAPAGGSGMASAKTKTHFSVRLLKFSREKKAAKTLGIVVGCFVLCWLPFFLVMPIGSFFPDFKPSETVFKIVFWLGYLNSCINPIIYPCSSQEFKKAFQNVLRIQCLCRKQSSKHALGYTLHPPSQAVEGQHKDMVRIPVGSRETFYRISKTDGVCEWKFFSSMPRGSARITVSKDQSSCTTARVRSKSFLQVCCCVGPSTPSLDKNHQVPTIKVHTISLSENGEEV
As to the kind of experiment: Displacement of [3H]-prazosin from human ADRA1A receptor.

Another data set has as its target D(3) dopamine receptor (Homo sapiens, UniProt P35462). As to the kind of experiment: Displacement of [3H]-spiperone from human dopamine D3 receptor expressed in CHO cell membranes.
The species named for data set [3] is Homo sapiens. As to the kind of experiment: Selectivity ratio of Ki for human ADRA1A receptor to Ki for human dopamine D3 receptor.
The next data set has as its target D(2) dopamine receptor (Homo sapiens, UniProt P14416). As to the kind of experiment: Displacement of [3H]-spiperone from human dopamine D2S receptor expressed in HEK293 cell membranes.
In a further data set the target is hERG (KCNH2) (Homo sapiens, UniProt Q12809). As to the kind of experiment: Inhibition of dofetilide binding to human ERG at 1 uM. The following applies: probe dofetilide.

Each structure is given as a SMILES string.

Sequence of D(3) dopamine receptor (P35462 whole entry): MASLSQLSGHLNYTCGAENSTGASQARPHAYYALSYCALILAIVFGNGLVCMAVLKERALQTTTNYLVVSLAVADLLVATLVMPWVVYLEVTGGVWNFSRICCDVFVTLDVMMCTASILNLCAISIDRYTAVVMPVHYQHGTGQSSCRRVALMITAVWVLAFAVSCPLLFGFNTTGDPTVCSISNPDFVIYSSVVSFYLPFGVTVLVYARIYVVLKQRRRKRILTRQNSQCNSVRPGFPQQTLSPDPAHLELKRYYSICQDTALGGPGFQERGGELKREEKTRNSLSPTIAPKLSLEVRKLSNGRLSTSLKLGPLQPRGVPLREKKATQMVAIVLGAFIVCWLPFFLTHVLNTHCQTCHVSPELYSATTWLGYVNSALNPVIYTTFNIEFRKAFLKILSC
Sequence of D(2) dopamine receptor (P14416 whole entry): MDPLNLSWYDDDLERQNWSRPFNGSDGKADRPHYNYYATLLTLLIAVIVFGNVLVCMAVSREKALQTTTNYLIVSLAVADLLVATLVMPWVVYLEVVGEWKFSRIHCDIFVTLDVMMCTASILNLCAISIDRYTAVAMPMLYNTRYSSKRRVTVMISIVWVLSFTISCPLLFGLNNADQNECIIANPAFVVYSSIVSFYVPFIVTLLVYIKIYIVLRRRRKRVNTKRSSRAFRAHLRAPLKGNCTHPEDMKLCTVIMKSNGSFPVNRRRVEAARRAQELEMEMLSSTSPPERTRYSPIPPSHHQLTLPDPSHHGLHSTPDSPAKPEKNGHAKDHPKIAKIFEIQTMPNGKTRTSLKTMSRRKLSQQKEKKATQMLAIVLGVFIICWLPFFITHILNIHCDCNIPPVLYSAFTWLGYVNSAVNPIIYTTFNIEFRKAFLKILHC
Sequence of hERG (KCNH2) (Q12809 whole entry): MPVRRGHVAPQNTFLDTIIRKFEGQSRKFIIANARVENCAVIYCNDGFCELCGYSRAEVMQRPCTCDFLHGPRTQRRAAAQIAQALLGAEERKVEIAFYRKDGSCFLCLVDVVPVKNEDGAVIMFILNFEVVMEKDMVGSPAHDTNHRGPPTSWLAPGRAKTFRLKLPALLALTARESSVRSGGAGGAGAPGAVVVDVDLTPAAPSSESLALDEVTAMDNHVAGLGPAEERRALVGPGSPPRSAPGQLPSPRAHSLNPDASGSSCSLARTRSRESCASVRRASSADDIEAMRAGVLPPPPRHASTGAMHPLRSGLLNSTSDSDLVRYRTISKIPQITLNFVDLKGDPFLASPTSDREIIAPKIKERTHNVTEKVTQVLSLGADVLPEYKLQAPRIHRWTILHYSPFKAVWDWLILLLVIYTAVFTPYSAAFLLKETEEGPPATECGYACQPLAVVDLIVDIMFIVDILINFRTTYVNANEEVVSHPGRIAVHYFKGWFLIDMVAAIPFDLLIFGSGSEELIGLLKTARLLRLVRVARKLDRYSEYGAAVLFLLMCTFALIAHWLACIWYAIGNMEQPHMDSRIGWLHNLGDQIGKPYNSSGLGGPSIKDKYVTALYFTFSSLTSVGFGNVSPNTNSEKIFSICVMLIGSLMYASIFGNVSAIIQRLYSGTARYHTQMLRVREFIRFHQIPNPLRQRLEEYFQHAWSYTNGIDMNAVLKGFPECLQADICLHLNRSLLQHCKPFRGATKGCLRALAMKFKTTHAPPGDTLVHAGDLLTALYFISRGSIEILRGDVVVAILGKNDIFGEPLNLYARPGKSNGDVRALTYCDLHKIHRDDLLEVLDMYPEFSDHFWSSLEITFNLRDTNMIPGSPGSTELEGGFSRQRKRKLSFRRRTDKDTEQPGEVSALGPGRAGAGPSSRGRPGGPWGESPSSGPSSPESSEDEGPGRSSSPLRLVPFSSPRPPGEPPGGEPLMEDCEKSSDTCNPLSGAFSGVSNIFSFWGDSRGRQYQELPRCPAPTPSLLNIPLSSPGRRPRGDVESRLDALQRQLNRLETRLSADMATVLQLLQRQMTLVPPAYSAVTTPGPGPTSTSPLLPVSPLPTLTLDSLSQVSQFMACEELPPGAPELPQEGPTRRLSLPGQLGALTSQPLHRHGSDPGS

Take `CCOC(=O)Nc1cccc(N2CCN(CCCCNC(=O)c3ccc4ccccc4c3)CC2)c1`: the Ratio Ki was 234 in the data set listed under Homo sapiens [1] and 264 in the data set filed under Homo sapiens [3]. The Ki worked out at 1.03 µM in data set [2], 0.0039 µM on D(3) dopamine receptor and 0.911 µM on D(2) dopamine receptor (read-out: Ki).
Turning to `COc1ccccc1N1CCN(CCCCNC(=O)N(C)c2ccccc2)CC1`, the Ratio Ki was determined as 130 in the data set filed under Homo sapiens [1] and 10 in the data set filed under Homo sapiens [3]. In addition, the Ki in data set [2] is 0.116 µM; at D(3) dopamine receptor it was 0.012 µM; on D(2) dopamine receptor (read-out: Ki) it was 1.55 µM.
With `COc1ccccc1N1CCN(CCCCNC(=O)Nc2cccc(Cl)c2)CC1`, the figures for the Ratio Ki in the data set listed under Homo sapiens [1] and in the data set listed under Homo sapiens [3] were 10 and 4, respectively. In addition, the Ki is 0.005 µM in data set [2], 0.0013 µM at D(3) dopamine receptor and 0.013 µM on D(2) dopamine receptor (read-out: Ki).
Turning to `O=C(NCCCCN1CCN(c2cccc(O)c2)CC1)c1ccc2ccccc2c1`, at hERG (KCNH2), testing at 1 µM gave an inhibition of 30%. Besides, the Ratio Ki was determined as 1900 in the data set listed under Homo sapiens [1] and 7600 in the data set listed under Homo sapiens [3]. Besides, the results for the Ki (in data set [2]; on D(3) dopamine receptor; on D(2) dopamine receptor (read-out: Ki)) were 1.53 µM, 0.0002 µM and 0.373 µM, respectively.
`O=C(NCCCCN1CCN(c2ccccc2Cl)CC1)c1ccc2ccccc2c1`: the Ratio Ki in the data set filed under Homo sapiens [1] was determined as 340; in the data set filed under Homo sapiens [3] it was 43. In addition, the values for the Ki (in data set [2]; at D(3) dopamine receptor; on D(2) dopamine receptor (read-out: Ki)) were 0.0299 µM, 0.0007 µM and 0.238 µM, respectively.
On to `COc1ccccc1N1CCN(CCCCNC(=O)CC2CCCCC2)CC1`, for which the values for the Ratio Ki in the data set listed under Homo sapiens [1] and in the data set listed under Homo sapiens [3] were 161 and 33, respectively. The Ki in data set [2] came out at 0.0655 µM; at D(3) dopamine receptor, 0.002 µM; at D(2) dopamine receptor (read-out: Ki) it was 0.322 µM.
For the compound `CS(=O)(=O)Nc1cccc(N2CCN(CCCCNC(=O)c3ccc4ccccc4c3)CC2)c1`, the results for the Ratio Ki in the data set filed under Homo sapiens [1] and in the data set listed under Homo sapiens [3] were 34 and 100, respectively. The Ki in data set [2] was determined as 0.16 µM; at D(3) dopamine receptor, 0.0016 µM; on D(2) dopamine receptor (read-out: Ki), 0.055 µM.
Turning to `O=C(NCCCCN1CCN(c2ccccc2O)CC1)c1ccc2ccccc2c1`, the Ratio Ki in the data set listed under Homo sapiens [1] turned out to be 400; in the data set filed under Homo sapiens [3], 3.7. Also, the Ki in data set [2] was 0.0467 µM; at D(3) dopamine receptor, 0.0127 µM; at D(2) dopamine receptor (read-out: Ki), 5.03 µM.
`COc1ccccc1N1CCN(CCCCNC(=O)C2CCCCC2)CC1` had an inhibition at 1 µM on hERG (KCNH2) of 82%. Besides, the Ratio Ki in the data set filed under Homo sapiens [1] amounted to 190; in the data set listed under Homo sapiens [3], 1070. Further, the Ki in data set [2] is 0.963 µM; at D(3) dopamine receptor, 0.0009 µM; on D(2) dopamine receptor (read-out: Ki), 0.168 µM.
Regarding `COc1ccccc1N1CCN(CCCCNC(=O)CC(C)C)CC1`, the Ki was 0.418 µM in data set [2], 0.123 µM on D(3) dopamine receptor and “Not Active” on D(2) dopamine receptor (hek293). Moreover, the Ratio Ki in the data set listed under Homo sapiens [3] is 3.
As to `COc1ccccc1N1CCN(CCCCNC(=O)N2CCOCC2)CC1`, the Ratio Ki in the data set filed under Homo sapiens [1] was determined as 270; in the data set filed under Homo sapiens [3], 45. The Ki was 0.081 µM in data set [2], 0.0018 µM at D(3) dopamine receptor and 0.482 µM at D(2) dopamine receptor (read-out: Ki).
For `O=C(NCCCCN1CCN(c2ccc(Cl)cc2)CC1)c1ccc2ccccc2c1` the same measures were 1170, 16, 0.166 µM, 0.0104 µM and 12.1 µM.
Turning to `COc1ccccc1N1CCN(CCCCCOc2ccc3ccccc3c2)CC1`, the Ratio Ki in the data set filed under Homo sapiens [1] worked out at 0.4; in the data set listed under Homo sapiens [3], 0.1. Moreover, the Ki in data set [2] worked out at 0.0103 µM; at D(3) dopamine receptor, 0.087 µM; on D(2) dopamine receptor (read-out: Ki), 0.034 µM.
Take `O=C(NCCCCN1CCN(c2ccccc2F)CC1)c1ccc2ccccc2c1`: the Ratio Ki was determined as 250 in the data set listed under Homo sapiens [1] and 31 in the data set listed under Homo sapiens [3]. The Ki amounted to 0.0385 µM in data set [2], 0.00123 µM on D(3) dopamine receptor and 0.31 µM on D(2) dopamine receptor (read-out: Ki).
Regarding `Cc1cccc(N2CCN(CCCCNC(=O)c3ccc4ccccc4c3)CC2)c1C`, the Ratio Ki in the data set listed under Homo sapiens [1] amounted to 230; in the data set filed under Homo sapiens [3], 170. Besides, the Ki in data set [2] came out at 0.23 µM; on D(3) dopamine receptor it was 0.00133 µM; on D(2) dopamine receptor (read-out: Ki), 0.302 µM.
At hERG (KCNH2), `O=C(NCCCCN1CCN(c2cccc(C(F)(F)F)c2)CC1)c1ccc2ccccc2c1` had an inhibition at 1 µM of 51%. In addition, the Ratio Ki turned out to be 1400 in the data set listed under Homo sapiens [1] and 260 in the data set filed under Homo sapiens [3]. The Ki in data set [2] turned out to be 0.283 µM; at D(3) dopamine receptor, 0.0011 µM; on D(2) dopamine receptor (read-out: Ki), 1.55 µM.
For the compound `O=C(NCCCCN1CCN(c2cccc(Cl)c2Cl)CC1)c1ccc2ccccc2c1`, the results for the Ki (in data set [2]; on D(3) dopamine receptor) were 0.104 µM and 0.00108 µM, respectively.
As to `Cc1ccccc1N1CCN(CCCCNC(=O)c2ccc3ccccc3c2)CC1`, the Ratio Ki amounted to 550 in the data set listed under Homo sapiens [1] and 41 in the data set filed under Homo sapiens [3]. Also, the Ki came out at 0.0299 µM in data set [2], 0.00073 µM at D(3) dopamine receptor and 0.404 µM on D(2) dopamine receptor (read-out: Ki).
For the compound `O=C(NCCCCN1CCN(c2cccc(Cl)c2)CC1)c1ccc2ccccc2c1`, the Ratio Ki in the data set listed under Homo sapiens [1] worked out at 700; in the data set filed under Homo sapiens [3] it was 11. Besides, the Ki was 0.0502 µM in data set [2], 0.0047 µM at D(3) dopamine receptor and 3.32 µM at D(2) dopamine receptor (read-out: Ki).
As to `O=C(NCCCCN1CCN(c2cccc3[nH]ccc23)CC1)c1ccc2ccccc2c1`, the Ratio Ki in the data set listed under Homo sapiens [1] was 73; in the data set filed under Homo sapiens [3] it was 15. In addition, the Ki was determined as 0.019 µM in data set [2], 0.0013 µM on D(3) dopamine receptor and 0.095 µM at D(2) dopamine receptor (read-out: Ki).
`O=C(NCCCCN1CCN(c2cccc3[nH]c(=O)[nH]c23)CC1)c1ccc2ccccc2c1`: the Ratio Ki in the data set filed under Homo sapiens [1] stood at 37; in the data set filed under Homo sapiens [3], 45. In addition, the Ki in data set [2] is 0.158 µM; on D(3) dopamine receptor it was 0.0035 µM; at D(2) dopamine receptor (read-out: Ki) it was 0.131 µM.
Turning to `O=C1Cc2c(cccc2N2CCN(CCCCNC(=O)c3ccc4ccccc4c3)CC2)N1`, the Ratio Ki in the data set listed under Homo sapiens [1] amounted to 100; in the data set filed under Homo sapiens [3], 420. Further, the Ki in data set [2] was 0.211 µM; at D(3) dopamine receptor, 0.0005 µM; at D(2) dopamine receptor (read-out: Ki), 0.052 µM.
